The values below come from PubChem BioAssay (NCI).

Test systems include ACHN renal; HCT-15 colon; IGROV1 ovarian; KM12 colon; SF-295 CNS; SF-539 CNS; SNB-75 CNS; SW-620 colon; U251 CNS; UACC-257 melanoma.
What all share (assay): NCI anticancer screen, dose series, 48 h

Molecules are shown by their SMILES.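 Compound exposure: 48 hours, 5 concentrations, 96-well plates. GI50 marks 50% less growth. TGI: concentration producing complete growth inhibition.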

As for `O=C(O)CCC(NC(=O)c1ccc(Nc2nc3ccccc3nc2-c2cccs2)cc1)C(=O)O` (stereo not drawn), the TGI in the test with ACHN renal, with HCT-15 colon, in the test on IGROV1 ovarian, in the test on KM12 colon, in the test on SF-295 CNS and in the test on SF-539 CNS was above 100 µM throughout. Besides, the TGI in the test on SNB-75 CNS, in the test with SW-620 colon, in the test with U251 CNS and in the test on UACC-257 melanoma was above 100 µM throughout.
Turning to `COC([CH2][Hg][n]1cnc2c1c(=O)n(C)c(=O)n2C)CN1C(=O)c2ccccc2S1(=O)=O` (stereo not drawn), the GI50 with ACHN renal, in the test with HCT-15 colon, in the test with IGROV1 ovarian, in the test with KM12 colon, in the test with SF-295 CNS and with SF-539 CNS was above 100 µM each time. Besides, the GI50 in the test on SNB-75 CNS, in the test on SW-620 colon, with U251 CNS and in the test with UACC-257 melanoma was above 100 µM each time. Also, the TGI in the test on ACHN renal, in the test on HCT-15 colon, in the test with IGROV1 ovarian, with KM12 colon, with SF-295 CNS and in the test on SF-539 CNS was above 100 µM throughout. In addition, the TGI in the test with SNB-75 CNS, with SW-620 colon, with U251 CNS and in the test on UACC-257 melanoma was above 100 µM in each case.
Turning to `C=CCOc1ccc2c(C)cc(=O)oc2c1C`, the TGI in the test on ACHN renal was above 100 µM; in the test on HCT-15 colon, above 100 µM; in the test on IGROV1 ovarian, above 100 µM; with KM12 colon it was above 100 µM; with SF-295 CNS it was 58.5 µM; in the test on SF-539 CNS, above 100 µM. Also, the TGI in the test on SNB-75 CNS, in the test with SW-620 colon, with U251 CNS and with UACC-257 melanoma was above 100 µM each time.
Consider `O=C1/C(=C/c2ccc(O)c(O)c2)CCC/C1=C\c1ccc(O)c(O)c1`, for which the TGI stood at 11 µM in the test with ACHN renal; 33.3 µM in the test with HCT-15 colon; 15.9 µM in the test on IGROV1 ovarian; 13.8 µM in the test with KM12 colon; 22.1 µM in the test with SF-295 CNS; 8.99 µM in the test on SF-539 CNS. The TGI in the test with SNB-75 CNS turned out to be 12.9 µM; in the test with SW-620 colon, 23.3 µM; in the test with U251 CNS it was 15.7 µM; in the test with UACC-257 melanoma it was 17.4 µM.
Consider `COC(=O)/C=C1\S/C(=N\NC(=O)c2cc3ccc2/C=C\c2ccc(cc2)/C=C\3)N(c2ccccc2)C1=O`, for which the GI50 was 1.78 µM with ACHN renal; 1.87 µM in the test with HCT-15 colon; 1.66 µM in the test on IGROV1 ovarian; 2.03 µM in the test with KM12 colon; 2.07 µM in the test on SF-295 CNS; 1.79 µM with SF-539 CNS. Besides, the GI50 with SNB-75 CNS is 5.44 µM; with SW-620 colon it was 1.85 µM; in the test on U251 CNS it was 1.89 µM; in the test with UACC-257 melanoma it was 5.14 µM. Further, the TGI with ACHN renal came out at 3.29 µM; in the test with HCT-15 colon, 4.05 µM; with IGROV1 ovarian it was 3.27 µM; with KM12 colon, 4.15 µM; in the test with SF-295 CNS, 4.19 µM; with SF-539 CNS, 3.32 µM. The TGI in the test on SNB-75 CNS is above 100 µM; with SW-620 colon it was 3.66 µM; with U251 CNS it was 4 µM; with UACC-257 melanoma it was above 100 µM.
Turning to `CCN1/C(=C\c2cc[n+](CC)c3ccccc23)C=Cc2ccccc21`, the GI50 in the test with ACHN renal is 1.19 µM; in the test with HCT-15 colon, 2.84 µM; in the test on IGROV1 ovarian, 0.36 µM; in the test with KM12 colon, 0.104 µM; with SF-295 CNS, 0.223 µM; in the test on SF-539 CNS, 0.22 µM. The GI50 was 0.169 µM with SNB-75 CNS, 0.23 µM in the test with SW-620 colon, 0.119 µM in the test on U251 CNS and 0.135 µM in the test on UACC-257 melanoma. The TGI worked out at 5.88 µM in the test on ACHN renal; 13.3 µM with HCT-15 colon; 12.8 µM in the test with IGROV1 ovarian; 1.42 µM with KM12 colon; 2.9 µM in the test on SF-295 CNS; 11 µM with SF-539 CNS. Besides, the TGI came out at 0.871 µM with SNB-75 CNS, 7.81 µM with SW-620 colon, 12.7 µM in the test on U251 CNS and 2.36 µM with UACC-257 melanoma.
As for `COc1ccc2c(c1)sc1nc(-c3ccccc3)c(-c3cccc4ccccc34)n12`, the GI50 was 0.76 µM in the test on ACHN renal; 0.47 µM in the test with HCT-15 colon; 2.07 µM in the test on IGROV1 ovarian; 0.429 µM in the test with KM12 colon; 0.415 µM in the test on SF-295 CNS; 0.385 µM with SF-539 CNS. The GI50 in the test with SNB-75 CNS is 0.386 µM; in the test on SW-620 colon, 0.346 µM; in the test with U251 CNS, 0.447 µM; in the test on UACC-257 melanoma, 0.532 µM. The TGI with ACHN renal was above 100 µM; with HCT-15 colon, above 38.4 µM; in the test on IGROV1 ovarian, above 100 µM; with KM12 colon, above 34.7 µM; in the test with SNB-75 CNS it was above 100 µM; in the test with SW-620 colon it was above 100 µM. For the same compound, the TGI in the test with U251 CNS and in the test with UACC-257 melanoma was above 100 µM throughout.
For the compound `CNC(=S)OCCC(C)CCCC(C)C` (stereo not drawn), the TGI in the test on ACHN renal was found to be 32.8 µM; in the test with HCT-15 colon, 27.9 µM; with IGROV1 ovarian, 31.7 µM; in the test on KM12 colon it was 27.8 µM; in the test on SF-295 CNS it was 36 µM; in the test on SF-539 CNS, 30.6 µM. The TGI was determined as 40.6 µM in the test on SNB-75 CNS, 30.7 µM with SW-620 colon, 30.1 µM in the test on U251 CNS and 30.1 µM in the test on UACC-257 melanoma.
Take `O=C1NC(=NCCc2cccc(F)c2)S/C1=C\c1ccc2ncccc2c1`: the GI50 with ACHN renal was 10.2 µM; in the test on HCT-15 colon it was 0.77 µM; in the test with IGROV1 ovarian, 5.15 µM; in the test with KM12 colon, 1.07 µM; in the test on SF-295 CNS, 2.56 µM; in the test with SF-539 CNS, 1.59 µM. Also, the GI50 was 3.79 µM in the test on SNB-75 CNS, 0.819 µM in the test on SW-620 colon, 1.46 µM with U251 CNS and 9.61 µM with UACC-257 melanoma. Besides, the TGI in the test with ACHN renal, with HCT-15 colon, in the test on IGROV1 ovarian, in the test on KM12 colon, with SF-295 CNS and with SF-539 CNS was above 25 µM throughout. In addition, the TGI in the test with SNB-75 CNS is above 21.9 µM; with SW-620 colon, above 25 µM; in the test with U251 CNS, above 25 µM; in the test on UACC-257 melanoma, above 25 µM.
